This note sets out measurements from patent publication US20260325500A1, “METHODS AND COMPOSITIONS FOR TREATING ACUTE STRESS DISORDER” (BioXcel Therapeutics, Inc., priority 2022, published 2026).

Entries after “also recorded” stand apart in the source; their conditions may differ. Structures can show the parent of a compound that is named as a salt.

Data set [1] concerns rat forced swim test model (depressive-like behavior). Description: Forced swim test in dark phase (Example 4). It counts as in vivo, Sprague Dawley rats. The settings on record: i.m. An excerpt:
Animal groups: Male Sprague Dawley (SD) rats (8-10 weeks old) were grouped housed 2 per cage in standard animal cages with facilities for pelleted food and drinking water in polycarbonate bottle with stainless steel sipper tubes. During the experimental period, animals were housed in a single experimental room. Rats were distributed in 7 different experimental groups with 9-12 rats per group as illustrated in Table 8. Animals were distributed to different groups based on body weight data. Each experimental group was also coded so that the experimenter became unaware of the true experimental group at the time FST trial.
Animals were housed in an environment-controlled room at 22±3° C. and relative humidity of 30 to 70 percent. During the study, 12/12 light/dark cycles were maintained. Lights of the acclimatization area were switched off at 06:00 PM. All experiments were carried out at ambient temperature under dark phase of lighting (between 06:00 PM to 06:00 AM). Adequate fresh air supply of 12-15 air changes/hour was maintained in the experimental room. The maximum and minimum temperature and relative humidity in the experimental rooms was recorded once daily. The relative humidity in the experimental room was calculated daily from dry and wet bulb temperature recordings.
Swim 1 was carried out between 18:30 to 21:30.
Swim 2 was carried out between 19:30 to 21:30. Animals were administered test compounds from 18:30 onwards in staggered manner 60 minutes before FST 2.
Forced swim test was carried out in dark phase
On Day 1, animals were subjected to forced swim test training for 15 minutes (Swim 1) and on Day 2, Swim 2 was carried out post treatment.
On day 2 animals were dosed with respective treatment 60 min prior to performing FST.
Forced swim test (Swim 2) was scored manually with no video recording.
Forced swim test (FST), was used to study the depressive-like behavior in rodents. The test was carried out in transparent cylindrical glass containers measuring 46 cm in height and 20 cm in diameter.
There were 2 swim sessions, 24 h apart. The first session, Swim 1 was the pretest/training stage (15 min) and the second session, Swim 2, was the test stage (8 min).
In swim 2, first 1-minute data was excluded from analysis and rest 7 minutes data was considered. In 7 minutes, data, it was divided 5 minutes and 2 minute.
Twenty-four hours after the start of Swim 1, the test swim (Swim 2) was carried out.
Rat was placed in the water-filled cylinder for 8 min (Swim 2).
The duration of time spent immobile, swimming, and climbing was observed by an observer blind to the treatment group.
Immobility period: A rat was judged to be immobile when it remained floating in the water without struggling and was making only those movements necessary to keep its head above water.
Statistical analysis: One Way ANOVA, Dunnet's multiple comparison test was applied with respect to vehicle saline and Tukey's multiple comparison test was applied to compare the data in between the groups using GraphPad Prism version 9 software.

Data set [2] deals with motor activity (locomotion) and sedation behavior of male Swiss albino mice. Description: Open field test, motor activity (locomotion) and sedation (Example 7). Format: in vivo. The settings on record: i.p. The procedure: Rationale: The spontaneous locomotor activity in terms of total distance traveled is measured in open field test. Comparatively lower distance traveled would indicate either less motor activity or sedation.
Animal groups: Swiss albino male mice (6-7 weeks old; 25-40 g weight) were distributed in 10 different experimental groups with 12 […] per group as illustrated in Table
Study drugs: The test substances (Dexmedetomidine hydrochloride and latrepirdine dihydrochloride hydrate) were dissolved in 0.9% normal saline which served as the vehicle.
Study design and dosing: Mice were brought to the laboratory and allowed to acclimatize to the environment for at least 7 days. The open field test was done in lighting conditions of 40 lux light. The mice were dosed as per the grouping in Table 10. After a post dose interval of 60 minutes, 4 mice from a group were placed in the open field and the movement was tracked for a period of 30 minutes. Once the trial was over the mice were removed from the open field and the arena was cleaned. Following this, next set of 4 mice were placed in the arena and tracked.
Statistical analysis: The distance travelled for a period of 30 minutes was analyzed in bins of 5 minutes and was compared with that of the vehicle group using one-way ANOVA followed by Dunnett's test. All statistical analyses were performed using Graph pad prism software package (Version 7 or Higher) and p value below 0.05 was considered as significant.

Data set [3] deals with Yohimbine-induced noradrenergic mediated hyperarousal in Wistar rats. Description: Elevated plus maze, yohimbine-induced noradrenergic mediated hyperarousal (Example 2). The settings on record: 10 mg/kg, i.m., 60 min prior; yohimbine 2.5 mg/kg i.p. Format: in vivo. From the text:
Background: Yohimbine is an alpha 2-adrenergic receptor antagonist reported to trigger panic attacks in healthy volunteers and to exacerbate symptoms in patients with panic disorder (Charney et al., 1992 Acta Psychiatr Scand., Vol. 86 (4): 273-282). Peripheral administration of Yohimbine causes noradrenergic mediated hyperarousal in rats as assessed by the EPM paradigm.
Rationale: The drug yohimbine is a natural product used to test a specific pathway, noradrenergic-mediated hyper-arousal. It is well established that yohimbine is an alpha2-adrenergic receptor antagonist and activates the locus coeruleus (LC) and increases noradrenergic signaling (the opposite of alpha2-adrenergic agonists like dexmedetomidine and clonidine). Increased LC activity and noradrenergic signaling makes animals anxious and agitated which can be measured by using the elevated plus maze. In the elevated plus maze, rodents were in the closed arms and explored the open arms depending on their anxiety and agitation (rats and mice normally explore their environments extensively when calm). […] This behavior is correlated to increased level of anxiety caused by noradrenergic mediated hyperarousal.
Animal groups: Male: Wistar rats were used in this study and were randomly divided to different experimental groups (12 animals per group).
Study drugs: Four test drugs with different mechanisms of action linked to agitation were chosen to find drugs that are effective in reducing yohimbine-induced agitation: (1) Fluvoxamine (selective serotonin reuptake inhibitor) (2) Dextromethorphan (modulator of NMDA signals) (3) Diazepam (modulator of gamma-aminobutyric acid (GABA) as a positive control) and (4) Latrepirdine (complex pharmacology).
The test drugs were procured from Sigma or Tocris. dextromethorphan from Sigma Aldrich, Cat No. D9684; latrepirdine from Sigma Aldrich, Cat No. D6196 or Tocris Cat No. 3201 diazepam and fluvoxamine Sigma Aldrich, Cat No. F2802 or Tocris, Cat No. 1033. All these test drugs were formulated in sufficient quantity in 0.9% saline except for fluvoxamine, which was formulated in 30% ethanol in 0.9% saline.
Apparatus: Elevated Plus Maze (EPM) was used (FIG. 1). The maze consisted of two closed arms and two open arms forming a cross, with a square center platform. All visible surfaces were made of black acrylic. Each arm of the maze was placed on a support column above the floor. Antistatic black vinyl curtains used for surrounding the EPM to make an enclosure.
Study design and dosing: Yohimbine was administered by intraperitoneal injection (i.p.) at a dose of 2.5 mg/kg (30 minutes prior to study) to induce agitation and the effects were assessed 30 minutes after yohimbine injection by measuring the number of open arm entries and exploration time in the EPM. The test drugs fluvoxamine, dextromethorphan and latrepirdine dihydrochloride hydrate were administered through intramuscular route and, diazepam through intraperitoneal route into the hindleg thigh muscle of rats (60 minutes prior to study; 30 minutes prior to yohimbine administration). Diazepam was injected 30 minutes intraperitonially prior to the assay i.e. along with yohimbine administration. The study design is illustrated in FIG. 2 and table 5.
After the test drug administration, the rat was placed on the platform opposite a closed arm. The number of entries and the time spent in each arm were recorded during a 5 min period. The animal was considered as entered in arm when it placed its four paws into the arm.
Statistical analysis: Analysis of variance (ANOVA) was performed on the result data. Fisher's PLSD was used for pairwise comparisons and p value≤0.05 was considered significant.

As for `Cc1cccc([C@H](C)c2cnc[nH]2)c1C` [dexmedetomidine hydrochloride], in data set [1] (1 μg/kg, versus vehicle saline), the climbing time entry is “significantly increased” and the “increase in swimming time” value is ~ 1.6%. In data set [1] (5 μg/kg), the swimming time entry is listed as “significantly increased”. Further, the immobility time entry in data set [1] (1 and 5 μg/kg, versus vehicle saline) is “significantly decreased”. Besides, the distance traveled result in data set [2] (4 μg/kg, 10 μg/kg and 20 μg/kg) is on record as “did not show any significant reduction in distance traveled”. In data set [2] (30 μg/kg), the distance traveled entry was “significant reduction in distance traveled”.

Take `COc1ccc2c(c1)[C@]13CCCC[C@@H]1[C@H](C2)N(C)CC3` [dextromethorphan]: the “reduction of noradrenergic mediated hyperarousal (open arm entries and time spent)” value in data set [3] was “ineffective; also recorded: no effect”.

Turning to `COCCCC/C(=N\OCCN)c1ccc(C(F)(F)F)cc1` [fluvoxamine], in data set [3], the “reduction of noradrenergic mediated hyperarousal (open arm entries and time spent)” value is recorded as “ineffective; also recorded: no effect”.
